US20230181493A1, “BIOMARKERS RELATED TO PARKINSON'S DISEASE AND METHODS OF USING THE SAME” (SENDA BIOSCIENCES, INC., priority 2020, published 2023)
Values belong to the molecule of their own block, whether it stands above or below them.

Experiments:
[1] = biological target: T1, Tyrosine decarboxylase (tdc) (Enterococcus faecalis, UniProt P0DTQ4); experiment: Inhibition of tyrosine decarboxylase in vitro; assay type: biochemical; details: 60 min preincubation of tdc with inhibitor at room temperature; dopamine formed from levodopa, LC-MS
T1 construct: made in house
T1 sequence (P0DTQ4 1-620): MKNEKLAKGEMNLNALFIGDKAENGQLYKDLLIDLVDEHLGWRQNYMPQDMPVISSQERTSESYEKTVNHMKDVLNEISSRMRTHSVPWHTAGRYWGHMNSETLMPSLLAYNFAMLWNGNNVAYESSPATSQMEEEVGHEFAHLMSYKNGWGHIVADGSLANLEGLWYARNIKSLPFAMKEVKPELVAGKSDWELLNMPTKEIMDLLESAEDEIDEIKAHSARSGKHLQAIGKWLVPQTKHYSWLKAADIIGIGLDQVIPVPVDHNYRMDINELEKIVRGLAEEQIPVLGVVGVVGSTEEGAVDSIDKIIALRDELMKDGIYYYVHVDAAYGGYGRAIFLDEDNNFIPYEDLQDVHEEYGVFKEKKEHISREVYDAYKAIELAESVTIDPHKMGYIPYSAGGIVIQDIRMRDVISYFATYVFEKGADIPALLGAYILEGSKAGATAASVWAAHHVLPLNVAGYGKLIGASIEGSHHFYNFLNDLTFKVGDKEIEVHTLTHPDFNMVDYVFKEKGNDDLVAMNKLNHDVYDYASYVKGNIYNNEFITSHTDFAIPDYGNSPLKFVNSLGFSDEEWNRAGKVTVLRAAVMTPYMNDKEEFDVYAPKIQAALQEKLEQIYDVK
Procedure: Tyrosine decarboxylase (tdc) was obtained by following a previously published literature procedure (Rekdal et al., Science 2019; 364(6445):eaau6323). The tdc (220 nM final concentration) was thawed on ice and then mixed with pyridoxal-5-phosphate (2.2 mM final concentration) in 200 mM sodium acetate buffer, pH 5.5 optionally containing 1 mM TCEP. To this mixture was added inhibitor at a final concentration of 1000, 333, 111, 37, 12, 4.1, 1.4, or 0 μM (final volume: 100 μL; inhibitor was 100-fold concentrated in a solution of DMSO, H2O, or DMSO:H2O (1/1 v/v)). The protein-inhibitor mixture was incubated at room temperature for 60 min. 6 μL of this mixture was then withdrawn from each solution and mixed with 54 μL of 10 mM levodopa in 200 mM sodium acetate buffer pH 5.5. The final concentration of the reaction was 22 nM tdc, 220 μM pyridoxal-5-phosphate, 9 mM levodopa in 200 mM sodium acetate buffer pH 5.5 with 0-100 μM inhibitor. The reaction proceeded for 5 min at room temperature before being quenched by the addition of 540 μL acetonitrile containing 0.1% (v/v) formic acid supplemented with 200 nM tolbutamide as an internal standard. The reactions were centrifuged (3,000 g, 10 min), and then 100 μL of each supernatant was transferred to a fresh plate. 100 μL of acetonitrile containing 0.1% (v/v) formic acid supplemented with 200 nM tolbutamide was added. An external standard curve containing 0-150 μM dopamine was prepared in the exact same manner.
Dopamine formed in each reaction was quantified by using an Agilent 6470 triple quadrupole mass spectrometer equipped with an Acquity UPLC. Mobile phase A consisted of H2O containing 10 mM ammonium formate, pH 3.0 and supplemented with 0.1% (v/v) formic acid. Mobile phase B consisted of acetonitrile containing 10 mM ammonium formate, pH 3.0 and supplemented with 0.1% (v/v) formic acid. 5 μL of each sample was injected onto a BEH Amide column (Waters Corporation, 2.1×50 mm, 1.7 μm). The gradient was set to: 100% mobile phase B at 0 min, decreasing linearly to 65% mobile phase B by 1.5 min, held constant at 65% mobile phase B until 2.5 min, ramped back up to 100% mobile phase B by 2.6 min, and held constant at 100% mobile phase B until 4.2 min. The flow rate was 0.6 mL/min. The dopamine was detected by using the mass spectrometer in multiple reaction monitoring (MRM) mode, quantifying the transition 154.1 to 137.0 m/z in positive mode. The fragmentor setting was 74, the collision energy was 9, and the cell accelerator voltage was 4, and the dwell time was 20. Tolbutamide was monitored using MRM and quantifying the transition of 271.1 to 91.0 m/z in positive mode. The fragmentor setting was 88, the collision energy was 37, and the cell accelerator voltage was 4, and the dwell time was 20.
The amount of dopamine was quantified by normalizing the area to the area of tolbutamide internal standard within each sample. This relative response was then compared to that of the standard curve to obtain the dopamine formed within each sample. The concentration of dopamine formed as a function of the inhibitor concentration at the preincubation stage was plotted in GraphPad Prism 8, and the IC50 was calculated using the non-linear fit for the standard IC50 curve equation “[inhibitor] vs response (three parameters).”

E. faecalis v583 = experiment: Inhibition of Enterococcus faecalis decarboxylation activity in vitro; assay type: cell-based; details: levodopa remaining in E. faecalis v583 culture, BHI broth pH 5, 1.5 mM levodopa, 24 h at 37° C., anaerobic, read-out: IC50 @ 60 min
Procedure: A vial of 200 μL of E. faecalis v583 was removed from a −80° C. freezer and thawed in an anaerobic chamber containing an atmosphere of either 95/5 N2/H2 (v/v) or 90/5/5 N2/H2/CO2 (v/v). 200 μL was inoculated into 10 mL of sterile, anaerobic BHI broth, pH 5 (adjusted with NaOH). The culture was grown overnight at 37° C. under anaerobic conditions.
After overnight incubation, 40 μL of the saturated starter culture was mixed with 744 μL of sterile, anaerobic BHI broth, pH 5 that had been supplemented with 1.5 mM levodopa. To this was added 16 μL of a 50-fold concentrated stock solution of inhibitor that had been dissolved in either DMSO, H2O, or DMSO:H2O (1:1 v/v). The final concentration of the inhibitor in each condition was 0, 0.001, 0.01, 0.1, 1, 10, or 100 μM. The contents of each incubation were mixed, and then 100 μL was transferred into a fresh 96-well plate. […]
The samples were analyzed by using an Agilent 6470 triple quadrupole mass spectrometer equipped with an Acquity UPLC. […] The levodopa was detected by using the mass spectrometer in multiple reaction monitoring (MRM) mode, quantifying the transition 198.1 to 151.9 m/z in positive mode. […] Tolbutamide was monitored using MRM and quantifying the transition of 271.1 to 91.0 m/z in positive mode. […]
The amount of levodopa was quantified by normalizing the area to the area of tolbutamide internal standard within each sample. […]

[2] = system: microbial enzyme TDC in the rat microbiome; experiment: In vivo metabolism of levodopa: levodopa in circulation after inhibition of microbial TDC; details: oral gavage, whole blood, LC-MS/MS
Text: The microbial enzyme TDC in the rat microbiome was inhibited with alpha-fluoromethyltyrosine (AFMT). On day 0, male Sprague Dawley rats were prophylactically treated with single oral gavage of vehicle, carbidopa, carbidopa+S-AFMT, or carbidopa+R-AFMT, respectively. On day 1, solutions of levodopa, carbidopa, S-AFMT in 1% methyl cellulose (w/v), and 1% ascorbic acid (w/w) in deionized (DI) water were applied by oral gavage to male Sprague Dawley rats.
Whole blood samples were drawn and levodopa concentrations were determined by LC-MS/MS at 0, 5, 10, 15, 30, 45, 90, and 180 min post-application (12 animals per time point).

[3] = carbidopa administered with levodopa; cited from earlier work

Procedure for hepatocytes: In a 50 mL falcon tube, 40 mL of Gibco hepatocyte thawing medium was added. The remaining 10 mL of medium was used to gently transfer hepatocytes into a falcon tube using a wide-mouth pipette. The mixture was centrifuged briefly at low speed (100 g for 30 sec) to gather cells at the base of the tube. The supernatant was removed from the tube then bleached and the liquid discarded, leaving behind the cell pellet in the tube. About 4 mL of Gibco Williams E phenol-free medium was added to the tube to get a final count of 1 mil/mL, tilting gently by hand to scatter the cell pellet. […] Count was repeated twice and averaged to calculate the concentration in solution. Count of 1.2 mil/mL was found, and another 800 μL of incubation medium was added to the tube to bring the count to 1 mil/mL. Four wells of a 24 well plate were plated with 1 mL per well, and the plate was gently agitated to distribute a uniform number of cells per well. The plate was pre-incubated for about 10 min at 37° C. […] The plates were agitated to distribute compounds, then 200 μL aliquots were taken from each well and treated with an equal volume of ice-cold acetonitrile to quench catalysis and monitor progress. The quenching and sampling procedure was repeated at 4 h for 4-h samples. The quenched samples were centrifuged at 4000 g for 10 min at 4° C. and the supernatants were saved for analysis.

SMILES: N[C@@](CF)(Cc1ccc(O)cc1)C(=O)O [AFMT, alpha-fluoromethyltyrosine]
- levels of levodopa at the earliest timepoint assessed [2]: elevated levels of levodopa at the earliest timepoint assessed

SMILES: NC(Cc1ccc(O)cc1)(C(=O)O)C(F)F (stereo not shown) [Compound K, 2-amino-3,3-difluoro-2-(4-hydroxybenzyl)propanoic acid]
- IC50 @ 60 min [1]: Minor inhibition

SMILES: NCCc1cccc(O)c1 [meta-tyramine]
- metabolites produced by hepatocytes (hepatocytes): metabolic derivatives of meta-tyramine (e.g., 3-hydroxyphenylacetic acid and meta-tyramine-O-sulfate) were produced

SMILES: CC(Cc1ccc(O)c(O)c1)(NN)C(=O)O (single isomer, unassigned; (-)) [carbidopa, (−)-L-α-hydrazino-α-methyl-β-(3,4-dihydroxybenzene) propanoic acid monohydrate]
- reduction of the amount of levodopa required to produce a given response [3]: about 75%

Other lines, results leading:

- IC50 [1]: 82.3 µM
- IC50 (E. faecalis v583): 18.5 µM
SMILES: N[C@](CF)(Cc1ccc(O)cc1)C(=O)O [T, (R)-2-amino-3-fluoro-2-(4-hydroxybenzyl)propanoic acid]

- IC50 [1]: > 1000 µM
SMILES: COc1ccc(CCC(N)(CF)C(=O)O)cc1 (stereo not shown) [Compound U, 2-amino-2-(fluoromethyl)-4-(4-methoxyphenyl)butanoic acid]

- IC50 [1]: 4 µM
- IC50 (E. faecalis v583): 2 µM
SMILES: N[C@@](CF)(Cc1ccc(O)cc1)C(=O)O [S, (S)-2-amino-3-fluoro-2-(4-hydroxybenzyl)propanoic acid]

- IC50 @ 60 min [1]: Minor inhibition
SMILES: NC(CF)(Cc1cccc(O)c1)C(=O)O (stereo not shown) [Compound R, 2-amino-3-fluoro-2-(3-hydroxybenzyl)propanoic acid]
